Reference: patent US20250197799A1, “CELLS DERIVED FROM POLYPEDILUM VANDERPLANKI AND ODOR SENSOR EQUIPPED THEREWITH” (University of Maryland, College Park, priority 2022, published 2025)
Entries after “also recorded” stand apart in the source; their conditions may differ.

Columns and labels:
Orco-Or47a [1] = molecular target: T1, Orco-Or47a (Drosophila melanogaster, UniProt P81921+Q9VNB5); assay: Functional confirmation of exogenous membrane proteins in Orco-Or47a stable expression cell line; format: cell-based; design: remnant residues; expressed in transfected cells; conditions: VUAA1 final 100 μM; pentyl acetate final 1 mM; DMSO negative control
T1 sequence (Q9VNB5 1-486): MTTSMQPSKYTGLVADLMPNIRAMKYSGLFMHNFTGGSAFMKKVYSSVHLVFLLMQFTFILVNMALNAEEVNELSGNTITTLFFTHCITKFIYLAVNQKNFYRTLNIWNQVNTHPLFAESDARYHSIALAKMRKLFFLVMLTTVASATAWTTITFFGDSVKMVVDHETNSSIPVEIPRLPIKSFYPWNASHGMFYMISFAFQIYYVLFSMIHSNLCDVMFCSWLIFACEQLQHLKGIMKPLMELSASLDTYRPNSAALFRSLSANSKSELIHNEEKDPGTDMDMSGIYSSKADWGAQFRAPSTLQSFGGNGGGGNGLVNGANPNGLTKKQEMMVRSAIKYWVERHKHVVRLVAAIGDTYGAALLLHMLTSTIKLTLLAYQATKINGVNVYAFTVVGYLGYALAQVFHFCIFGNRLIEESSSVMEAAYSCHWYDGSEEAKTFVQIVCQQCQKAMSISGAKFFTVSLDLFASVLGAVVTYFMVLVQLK
T1 sequence (P81921 1-385): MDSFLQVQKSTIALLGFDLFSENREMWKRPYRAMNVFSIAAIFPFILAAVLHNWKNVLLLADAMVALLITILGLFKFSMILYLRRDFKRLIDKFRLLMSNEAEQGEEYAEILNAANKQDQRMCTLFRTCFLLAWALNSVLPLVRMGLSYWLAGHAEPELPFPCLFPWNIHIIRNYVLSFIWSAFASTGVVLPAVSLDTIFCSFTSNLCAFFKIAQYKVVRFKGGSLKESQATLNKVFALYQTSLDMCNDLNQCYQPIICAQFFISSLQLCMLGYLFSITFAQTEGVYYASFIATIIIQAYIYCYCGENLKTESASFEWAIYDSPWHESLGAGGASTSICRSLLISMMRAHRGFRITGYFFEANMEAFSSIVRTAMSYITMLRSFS
Description: 3.2 The functionality of GCaMP6f. The functionality of GCaMP6f in the resulting cell lines was evaluated using Ionomycin (Ionomycin; Fujifilm Wako Pure Chemical) to increase the intracellular concentration of calcium ions to provide functional confirmation of exogenous proteins in the GCaMP6f stable-expressing cell line. Ionomycin was dissolved in dimethyl sulfoxide (DMSO; Fujifilm Wako Pure Chemical Industries, Ltd.), adjusted to a final DMSO concentration of 1% and an ionomycin final concentration of 1 μM in IP1-41 medium, and added to the cell solution. As a negative control, DMSO was adjusted to a final concentration of 1% in IP 1-41 medium and added to the cell solution. Bright-field images and fluorescence images (ex: 470/40 nm; em: 525/50 nm) of the cells before and after solution addition were taken (all-in-one fluorescence microscope BZ-X710, Keyence). […] For statistical analysis of fluorescence intensity, one-way ANOVA was performed using Prism8 (GraphPad), followed by Tukey's multiple comparison test as a post-hoc test,
3.3 Functional confirmation of exogenous membrane proteins in cell lines with stable expression of Orco-Or47a. The amount of fluorescence expression was confirmed by the same operation as in 3.2 above. […] Fluorescence images were taken at an excitation wavelength/emission wavelength of 488 nm/525 nm. […]

Orco-Or47a [2] = molecular target: T1, Orco-Or47a; assay: Exogenous membrane protein function before drying and after drying-rehydration, Orco-Or47a stable expression cell line; format: cell-based; design: remnant residues; expressed in transfected cells; host or cells: Pv11 cells (Polypedilum vanderplanki), CRIS-PITCh knock-in at the Pv.00443 locus downstream of the 121 promoter, Zeocin selection and single-cell sorting
Description: To assess the drought tolerance of the cell lines, the cells were dried according to the following protocol. 4×10^7 Pv11-GCaMP6f stable expression cell lines were centrifuged at 700 g for 3 minutes and the supernatant removed. The precipitated cells were suspended in a 600 mM trehalose mix of 600 mM trehalose and IPL-41 medium at a ratio of 9:1, transferred to a 2 ml flask, and incubated at 25° C. for 48 hours. After 48 hours, the obtained cells were centrifuged at 700 g for 3 minutes and the supernatant was removed. The sedimented cells were suspended in 400 μl of 600 mM trebalose mix, and 40 μl were dropped onto a 35 mm dish. The 35 mm dish was dried for 10 days under conditions of 25° C. and humidity of 10% or less.
6. Assessment of exogenous membrane protein function after drying-rehydration. Using the Orco stable expression cell line and Orco-Or47a stable expression cell line, in order to assess the function of exogenous membrane proteins before drying and after 1 hour of rehydration after drying, fluorescence intensity generated in response to stimulation with VUAA1 (Orco agonist) or pentyl acetate (ligand of Or47a) was measured in the same manner as in 3.2 above.
The fluorescence intensity was digitized from the photograph, and ΔF/F was calculated according to the following formula:
Where the summation Σi=1^n is over the n cells in the image, Fi,after means the fluorescence intensity of the cell i after adding the ligand solution, and Fi,0 means the fluorescence intensity of the cell i before adding the ligand solution.
Specifically, a fluorescence image was taken under the condition in which the excitation wavelength/fluorescence wavelength was 488 nm/525 nm. In the fluorescence intensity quantification, the cells were identified in the photographed image, and the fluorescence intensity (F) was measured for each time. The initial values of fluorescence intensity (F0) were subtracted from the measured fluorescence intensity at each time to obtain the amount of change in fluorescence (ΔF), which was then normalized by dividing by the initial value of fluorescence intensity (F0) to obtain (Δ F/F0). A number of cells n were selected from the captured image, ΔF/F0 were produced for each, and the average value (including standard deviation, SD) of the results was graphed. For example, 25 cells were selected from the captured image, ΔF/F0 for each were produced, and the averaged results (including SD) were graphed. […] The Orco-Or47a stable expression cell line before drying responded to the Orco agonist (VUAA1) and the specific ligand of Or47a, pentyl acetate.

[3] = 1 hour after drying and rehydration, compared to DMSO control

Row | Structure (SMILES) | fluorescence intensity (Orco-Or47a [1]) | response as change in fluorescence intensity (ΔF/F0) (Orco-Or47a [2]; [3]) | response as change in fluorescence intensity (ΔF/F0) (Orco-Or47a [2]; before drying)
1 | CCc1ccc(NC(=O)CSc2nnc(-c3cccnc3)n2CC)cc1 [VUAA1, N-(4-ethylphenyl)-2-{[4-ethyl-5-(pyridin-3-yl)-4H-1,2,4-triazol-3-yl]sulfanyl}acetamide] | increase in fluorescence intensity was observed | significant difference in responsiveness; also recorded: fluorescence was observed | responded
2 | CCCCCOC(C)=O [pentyl acetate] | increase in fluorescence intensity was also observed | significant difference in responsiveness; also recorded: fluorescence was observed | responded
